Experiment [1] deals with T1, PKC isoenzyme γ (Homo sapiens, UniProt P05129).
T1 construct: made in house; host or cells: baculovirus-insect cell expression system
The experiment can be described thus: Protein kinase C inhibition assay, PKC isoenzyme γ. In kind it is biochemical. The note with it: read-out: IC50 PKC γ. Summed up:
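Baculovirus-expressed enzyme with histone H1 or myelin basic protein as substrate, at near-physiological pH, salt and cofactor levels, with suboptimal co-sonicated phosphatidylserine/DAG vesicles. Compounds were tested at 1, 10, 50 and 150 μM final; reactions ran 10 min, were TCA-stopped, and filter-bound ³²P was counted. IC50 is relative to control activity.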

The test system of experiment [2] is MCF-7 human breast tumor cell line. The experiment can be described thus: Human Tumor Cell Growth Inhibition (3H-thymidine incorporation). In kind it is cell-based. The protocol: MCF-7 a human breast tumor cell line was obtained from the National Cancer Institute, Frederick, Md. Tumor cells were trypsinized with 0.05% trypsin obtained from GIBCO (Grand Island Biological Co. Laboratories, Grand Island, N.Y.), counted with a hemacytometer and seeded at a concentration of 7,500 cells/well in a 96 well microtiter plate and allowed to attach to the surface overnight. To determine a concentration response, test agents were serially diluted an […] added at 2× final concentration to quadruplicate cultures to bring the total volume of each well to […]. The microtiter plate was then incubated at 37° C., 5% CO2 for 24 hrs with ^3 H-thymidine added at a concentration of 0.5 mCi/well in […] of 0.05% trypsin (GIBCO) was added to each well. Cells were checked microscopically to determine detachment from surfaces, and plates were harvested with a cell harvester (PHD, Cambridge Technology, Inc.). Filter paper corresponding to wells were placed in scintillation vials and counted to determine the amount ^3 H-thymidine incorporated by the cells. Counts per minute (CPM) of quadruplicate cultures were averaged and a percent of control calculated for each test agent concentration by the following formula: [formula]
The IC50 or concentration necessary to inhibit the proliferation of cells by 50% compared to control, of each test agent was determined by plotting % control vs log concentration for each dilution and then linear forecasting the 50% control value onto the X axis on a Quattro Pro computer program. Only regression values with a correlation coefficient greater then 0.9 were considered acceptable.
On the technique in general: Uptake of a labelled nucleoside into DNA is a usual measure of proliferation.

Experiment [3] has as its system human neutrophils. The experiment can be described thus: Neutrophil Superoxide Anion (O2) Release Assay, PMA-stimulated. It is filed as cell-based. The conditions noted are these: PMA-stimulated human neutrophils; read-out: Neutrophil Superoxide Release IC50. The text has this:
Phorbol-12,13-myristate acetate (PMA) stimulates O2 production in human neutrophils which in turn reduces cytochrome C. Reducing cytochrome C increases absorbance and the change in optical density (OD) is proportional to the amount of O2 produced by PMA stimulation. Inhibition is expressed as an IC50 value and is the amount of test compound that will inhibit fifty percent of the PMA-stimulated respiratory outburst, i.e. O2^31 production (Lherer et al. (1981) J. Clinical lnvest. 68:1314; Roberts et al. (1982) J. Immunological Methods 49:193).
Human donor blood in 0.38% Sodium Citrate was centrifuged for 10 minutes at 160 ×g at room temperature. Platelet-rich plasma was removed leaving the buffy coat and the red cell-enriched fraction. Saline with 0.38% Sodium Citrate was added to this fraction up to the original blood volume. The enriched blood sample was diluted 1:1 (v:v) with 3% dextran T500 (Pharmacia) in normal saline and placed in a 60 cc syringe, inverted over a beaker and allowed to settle 30 minutes at room temperature.
Leukocyte-enriched plasma was removed from the syringe, placed into 50 ml polypropylene conical centrifuge tubes and underlaid with 15-20 ml Lymphocyte Separation Medium (LSM Organon Technica). The tubes were centrifuged for 40 minutes at 500×g at room temperature. The plasma, buffy coat and LSM were aspirated off the pellets which contained red blood cells and neutrophils.
The pellets were vortexed and 10 ml ice-cold 0.2% NaCl was added to lyse the red blood cells while vortexing again for 10 seconds. Ice-cold 1.6% NaCl was added while vortexing for 10 seconds. The cells were combined from multiple tubes, centrifuged 10 min at 400×g at 4° C. This red cell lysis was repeated and the resulting neutrophil pellet was washed once in Reaction HBSS (GIBCO, HBSS with Ca^++ and Mg^++,.238% HEPES, 0.1% dextrose, 0.1% RIA grade bovine serum albumin, PH 7.2). The cells were resuspended in 1/5 the original blood volume with Reaction HBSS, counted and adjusted to 4.0×10^6 cells/ml at 4° C.
Duplicate samples of neutrophils were tested in 12×75 mm polypropylene tubes containing 0.25 ml of the neutrophil suspension. Cytochrome C mix (0.25 ml, 6.0 mg/ml cytochrome C type IV (Sigma) plus 1200 U/ml bovine liver catalase (Sigma) in Reaction HBSS described above) was added. PMA was added at 2×the final concentration in 0.5 ml of Reaction HBSS. PMA final test concentration were 0.0, 0.3, 9.0, 27.0, and 81.0 ng/ml. The tubes were vortexed and incubated for 10 minutes at 37° C. with shaking. After chilling for 5 minutes at 4° C. and centrifuging for 10 minutes at 4° C., 550×g, 0.5 ml of supernatant was removed from each tube. Normal saline (0.5 ml) was added to each 0.5 ml sample of supernatant and the absorbance of each sample was read at 550 nm on a spectrophotometer (Shimadzu). The PMA concentration which gives nearly maximal stimulation of superoxide release was determined.
The test samples of neutrophils were prepared as in the PMA dose response through addition of cytochrome C mix. Then 0.4 ml of Reaction HBSS as a control or test agent at 2.5×final test concentration was added and the tubes were vortexed and incubated for 30 minutes at 37° C. with shaking. PMA (0.1 ml) was added at a 10× concentration of the final concentration determined above. The samples were incubated for 10 minutes at 37° C. with shaking, chilled for 5 minutes at 4° C., and then centrifuged for 5 minutes at 550×g at 4° C. The supernatant (0.5 ml) was diluted with 0.5 ml normal saline as above and the absorbance was then determined at 550 nm. The percent change was calculated as follows: [formula] D-sphingosine (Sigma) used as reference standard.
Human neutrophils were first isolated according to Lherer et al. ((1981) J. Clinical Invest. 68:1314) and then tested for stimulation of superoxide anion release with phorbol--12,13-myristate acetate (PMA) in a dose-dependent manner. […]

Usually IC50 stands for the point on the concentration scale where inhibition reaches its midpoint.

On to `O=C1C(Nc2ccc(S(=O)(=O)NCc3ccccn3)cc2)=CC(=Nc2ccc(S(=O)(=O)NCc3ccccn3)cc2)c2ccccc21` [Compound 3n], for which the IC50 in experiment [1] worked out at 24 µM; in experiment [2] (Homo sapiens, MCF7, MCF-7, 24 hrs), 1.02 µM; in experiment [3], 0.22 µM.

For the compound `COc1cc(NS(=O)(=O)c2ccc(N=C3C=C(Nc4ccc(S(=O)(=O)Nc5cc(OC)cc(OC)c5)cc4)C(=O)c4ccccc43)cc2)cc(OC)c1` [Compound 6af], the IC50 in experiment [1] turned out to be 60 µM; in experiment [2] (MCF-7, 24 hrs), 1.2 µM; in experiment [3] it was 0.07 µM.

As for `Cc1cc(C)nc(NS(=O)(=O)c2cc(N=C3C=C(Nc4ccc(C)c(S(=O)(=O)Nc5cc(C)cc(C)n5)c4)C(=O)c4ccccc43)ccc2C)c1` [Compound 6ag], the IC50 in experiment [1] turned out to be 16 µM; in experiment [2] (MCF-7, 24 hrs), 1.8 µM; in experiment [3], 0.06 µM.

On to `Cc1cc(C)nc(NS(=O)(=O)c2ccc(N=C3C=C(Nc4ccc(S(=O)(=O)Nc5nc(C)cc(C)n5)cc4)C(=O)c4ccccc43)cc2)n1` [Compound 6c], for which the IC50 in experiment [1] is 7 µM; in experiment [2] (MCF-7, 24 hrs), 15.5 µM; in experiment [3], 1.88 µM.

`Cc1cc(NS(=O)(=O)c2ccc(N=C3C=C(Nc4ccc(S(=O)(=O)Nc5cc(C)nc(C)n5)cc4)C(=O)c4ccccc43)cc2)nc(C)n1` [Compound 6d]: the IC50 in experiment [1] was found to be 24 µM; in experiment [2] (MCF-7, 24 hrs), 17.9 µM; in experiment [3] it was 6.47 µM.

In the case of `Cc1ccnc(NS(=O)(=O)c2ccc(N=C3C=C(Nc4ccc(S(=O)(=O)Nc5nccc(C)n5)cc4)C(=O)c4ccccc43)cc2)n1` [Compound 6f], the IC50 was determined as 18 µM in experiment [1]; 17.7 µM in experiment [2] (MCF-7, 24 hrs); 2.11 µM in experiment [3].

As for `COc1cc(NS(=O)(=O)c2ccc(N=C3C=C(Nc4ccc(S(=O)(=O)Nc5cc(OC)nc(OC)n5)cc4)C(=O)c4ccccc43)cc2)nc(OC)n1` [Compound 6g], the half-inhibitory concentration (IC50) in experiment [1] is 20 µM; in experiment [2] (MCF-7, 24 hrs), 21 µM; in experiment [3], 1.34 µM.

In the case of `COc1cnc(NS(=O)(=O)c2ccc(N=C3C=C(Nc4ccc(S(=O)(=O)Nc5ncc(OC)cn5)cc4)C(=O)c4ccccc43)cc2)nc1` [Compound 6h], the half-maximal inhibitory concentration (IC50) in experiment [1] turned out to be 41 µM; in experiment [2] (MCF-7, 24 hrs), 14.9 µM; in experiment [3], 2.4 µM.

Turning to `O=C1C(Nc2ccc(S(=O)(=O)Nc3ccccn3)cc2)=CC(=Nc2ccc(S(=O)(=O)Nc3ccccn3)cc2)c2ccccc21` [Compound 6i], the 50% inhibitory concentration (IC50) in experiment [1] came to 10 µM; in experiment [2] (MCF-7, 24 hrs), 20 µM; in experiment [3], 0.11 µM.

As for `COc1ccc(NS(=O)(=O)c2ccc(N=C3C=C(Nc4ccc(S(=O)(=O)Nc5ccc(OC)nn5)cc4)C(=O)c4ccccc43)cc2)nn1` [Compound 6j], the half-maximal inhibitory concentration (IC50) in experiment [1] was determined as 30 µM; in experiment [2] (MCF-7, 24 hrs), 10.9 µM; in experiment [3] it was 3.33 µM.

As for `O=C1C(Nc2ccc(S(=O)(=O)Nc3cnc4ccccc4n3)cc2)=CC(=Nc2ccc(S(=O)(=O)Nc3cnc4ccccc4n3)cc2)c2ccccc21` [Compound 6m], the IC50 in experiment [1] is 10 µM; in experiment [2] (MCF-7, 24 hrs), 19 µM; in experiment [3] it was 1.39 µM.

As for `O=C1C(Nc2ccc(S(=O)(=O)NCc3ccccn3)cc2)=CC(=Nc2ccc(S(=O)(=O)NCc3ccccn3)cc2)c2ccccc21` [Compound 6n], the IC50 in experiment [1] turned out to be 44 µM; in experiment [2] (MCF-7, 24 hrs), 0.75 µM; in experiment [3], 0.1 µM.
